Results as given in patent US20260325542A1, “CANCER TARGETING COMPLEX, AND COMPOSITION COMPRISING SAME FOR PREVENTING OR TREATING CANCER” (EWHA UNIVERSITY - INDUSTRY COLLABORATION FOUNDATION, priority 2023, published 2026).

Experiments:
[1] = biological target: T1, BSA (bovine serum albumin) (Bos taurus, UniProt P02769); assay: In vitro binding of ECMal-PROTAC to albumin (thiol-maleimide reaction), RP-HPLC; settings: BSA 200 μM, ECMal-PROTAC 140 μM, 1:1 volume ratio
T1 construct: free Cys34 thiol reacts with maleimide
T1 sequence (P02769 25-607): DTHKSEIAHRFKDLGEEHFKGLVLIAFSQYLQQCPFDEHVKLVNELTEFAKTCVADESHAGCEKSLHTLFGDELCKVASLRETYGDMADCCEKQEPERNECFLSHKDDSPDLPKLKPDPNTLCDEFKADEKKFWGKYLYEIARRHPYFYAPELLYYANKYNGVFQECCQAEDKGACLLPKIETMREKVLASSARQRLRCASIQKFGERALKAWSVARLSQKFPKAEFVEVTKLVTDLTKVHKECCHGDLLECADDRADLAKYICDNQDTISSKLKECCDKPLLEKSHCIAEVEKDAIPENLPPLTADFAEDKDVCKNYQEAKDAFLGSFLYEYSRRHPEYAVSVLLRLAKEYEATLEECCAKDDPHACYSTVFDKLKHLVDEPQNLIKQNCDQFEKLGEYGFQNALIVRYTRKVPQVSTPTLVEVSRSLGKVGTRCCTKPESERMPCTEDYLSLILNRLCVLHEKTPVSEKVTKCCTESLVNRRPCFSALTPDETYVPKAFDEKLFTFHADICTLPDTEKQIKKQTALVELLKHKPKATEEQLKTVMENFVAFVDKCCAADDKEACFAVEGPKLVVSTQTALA
Method: The binding rate of ECMal-PROTAC from example 1 and albumin was confirmed through RP-HPLC. Specifically, a BSA solution (200 μM) diluted with PBS was co-incubated by mixing it with an ECMal-PROTAC aqueous solution (140 μM) of example 1 at a 1:1 volume ratio. The culture was collected at incubation times of 0 minutes, 5 minutes, 30 minutes, and 60 minutes. It was quenched with mercaptoethanol, and HPLC spectra for each sample were acquired through concentration gradient of the eluent (ACN/H2O, 20/80 to 80/20 (v/v), 30 minutes).
To verify the albumin binding ability of the complex for cancer targeting (ECMal-PROTAC) of example 1, the mixture of BSA and the complex for cancer targeting (ECMal-PROTAC) was analyzed by LC-MS spectrum, and compared with the LC-MS spectrum of free BSA.
FIG. 4 is the HPLC spectrum of a mixture of BSA and the complex for cancer targeting (ECMal-PROTAC). According to this, it can be seen that BSA and the complex for cancer targeting (ECMal-PROTAC) rapidly bind through a thiol-maleimide click chemical reaction. To confirm the albumin binding ability of the complex for cancer targeting (ECMal-PROTAC) of example 1, bovine serum albumin (BSA), which has a structure similar to human serum albumin (HSA), was used for analysis.
At this time, the HPLC spectra were also analyzed for a co-incubation of ARV-771 (140 μM) and BSA solution (200 μM) mixed at a 1:1 volume ratio as a comparative example, and for the ECMal-PROTAC solution and BSA solution alone without any treatment of example 1.
From the HPLC results for the BSA and complex for cancer targeting (ECMal-PROTAC) mixture in Experimental Example 1 and the thiol-blocked BSA and complex for cancer targeting (ECMal-PROTAC) mixture in Experimental Example 2, the reduction in the HPLC peak area associated with the complex for cancer targeting (ECMal-PROTAC) was quantified.

[2] = system: organ tissue and cancer tissue; assay: H&E histology of major organs and cancer tissue; assay type: in vivo, mouse; settings: excised after 15 days
Method: (§1) The control group was administered saline (10 mg/kg) once every 3 days for 15 days through the tail vein (total 4 administrations). The comparison group was administered ARV-771 (10 mg/kg) once every 3 days for 15 days through the tail vein (total 4 administrations). The example group was administered ECMal-PROTAC 10 mg/kg (wquiv. to ARV-771) of example 1 once every 3 days for 15 days through the tail vein (total 4 administrations).
The control group, the comparison group, and the example group were euthanized after 15 days, and major organs (heart, liver, lung, spleen, kidney) and cancer tissue were excised.
Furthermore, to analyze cancer cell apoptosis, TUNEL (terminal deoxynucleotidyl transferase dUTP nick end labeling) analysis was performed on cancer tissue excised from the control group, the comparison group, and the example group. Next, histological analysis was performed by H&E (hematoxylin & eosin) staining of the major organ tissues and cancer tissue of each excised group.
According to FIG. 29, major organ tissue and cancer tissue were excised from the control group, the comparison group, and the example group after 15 days. The excised organ tissue and cancer tissue were stained with H&E (hematoxylin & eosin). The H&E stained tissue was observed using a BX51 optical microscope (Olympus, Tokyo, Japan) and a TCS SP8 confocal laser microscope.

liver tissue = assay: TUNEL analysis of liver tissue; assay type: in vivo, mouse; settings: excised after 15 days
c-Myc = assay: Western blot of excised cancer tissue, c-Myc; assay type: in vivo, mouse
Method: as §1

BRD4 = biological target: T2, BRD4 (Mus musculus, UniProt Q9ESU6); assay: DAB staining of excised cancer tissue; assay type: in vivo; settings: FIG. 34
T2 construct: Western blot after PROTAC (ARV-771 release, VHL recruiting)
Method: as §1
FIG. 34 is the result of DAB staining of cancer tissue excised from the control group, the comparison group, and the example group.

- completion of thiol-maleimide reaction with BSA within 3 minutes ([1]; within 3 minutes): more than 75%
- completion of thiol-maleimide reaction with BSA within 10 minutes ([1]; within 10 minutes): 100%
- BRD4 deficiency (DAB staining) (BRD4): BRD4 deficiency was confirmed
Structure (SMILES): Cc1ncsc1-c1ccc([C@H](C)NC(=O)[C@@H]2C[C@@H](OC(=O)CCCCn3nnc4c3CCC3C(CC4)C3COC(=O)NCCOCCOCCNC(=O)CCN3C(=O)C=CC3=O)CN2C(=O)[C@@H](NC(=O)COCCCOCCNC(=O)C[C@@H]2N=C(c3ccc(Cl)cc3)c3c(sc(C)c3C)-n3c(C)nnc32)C(C)(C)C)cc1 (stereo partly shown) [ECMal-PROTAC]
- damage to the liver tissue ([2]; H&E): does not cause damage to the liver tissue
- damage in cancer tissue (H&E) [2]: strong damage
- damage in organ tissue (H&E) ([2]; liver, lung, spleen, kidney, heart): No significant damage
- apoptosis rate in liver tissue vs control (TUNEL) (liver tissue): no significant difference in the apoptosis rate
- c-Myc level in cancer tissue vs control (c-Myc; Western blot, 10 mg/kg): much lower levels
- c-Myc level in cancer tissue, example group vs comparison group (c-Myc; Western blot, vs ARV-771 group (so in the source)): no significant difference
- relative expression level of c-Myc, fold lower than control group (c-Myc; cancer tissue, FIG. 32): 2.2 times
